# Laboratory results taken from ChEMBL document CHEMBL4418308, “cGAS ANTAGONIST COMPOUNDS” (2017).
# Experiments:
# Cyclic GMP-AMP synthase [1] = molecular target: T1, Cyclic GMP-AMP synthase (Homo sapiens, UniProt Q8N884); test: Inhibition of recombinant His6-SUMO tagged human CGAS expressed in Escherichia coli BL21/pLys cells incubated for 20 mins by Kinase Glo chemiluminescence assay
# Cyclic GMP-AMP synthase [2] = molecular target: T1, Cyclic GMP-AMP synthase; test: Inhibition of CGAS in human THP1 cells transfected with interferon stimulatory DNA and measured after 16 hrs by Gaussia luciferase reporter gene assay; format: cell-based
# Cyclic GMP-AMP synthase [3] = molecular target: T1, Cyclic GMP-AMP synthase; test: Inhibition of CGAS in human THP1 cells transfected with mock Sendai virus and measured after 16 hrs by Gaussia luciferase reporter gene assay; format: cell-based
# T1 sequence (Q8N884 whole entry): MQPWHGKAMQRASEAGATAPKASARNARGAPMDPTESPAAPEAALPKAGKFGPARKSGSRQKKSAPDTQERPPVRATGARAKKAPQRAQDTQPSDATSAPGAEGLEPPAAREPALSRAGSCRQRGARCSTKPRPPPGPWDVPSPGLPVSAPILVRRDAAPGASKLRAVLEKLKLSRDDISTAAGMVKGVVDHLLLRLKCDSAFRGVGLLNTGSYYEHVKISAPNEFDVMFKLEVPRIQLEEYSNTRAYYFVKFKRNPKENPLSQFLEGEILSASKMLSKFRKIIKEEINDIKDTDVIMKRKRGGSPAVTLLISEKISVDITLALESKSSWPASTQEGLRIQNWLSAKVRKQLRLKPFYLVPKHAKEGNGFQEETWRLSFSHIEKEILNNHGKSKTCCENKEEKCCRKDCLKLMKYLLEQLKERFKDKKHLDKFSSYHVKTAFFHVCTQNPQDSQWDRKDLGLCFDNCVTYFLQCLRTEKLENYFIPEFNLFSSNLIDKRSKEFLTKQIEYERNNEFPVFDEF
SMILES,IC50 (Cyclic GMP-AMP synthase [1]) [nM],IC50 (Cyclic GMP-AMP synthase [2]) [nM],IC50 (Cyclic GMP-AMP synthase [3]) [nM]
CN1C(=O)S/C(=C\c2cc(OCc3cnc(N)nc3)c(O)cc2Br)C1=O,≤ 500,≤ 2500,≥ 10000
C[S+]([O-])c1ncc(COc2cc(/C=C3\Sc4ncccc4C3=O)c(Br)cc2O)cn1 (configuration not stated),≤ 500,≤ 2500,2500 to 10000
CN1C(=O)S/C(=C\c2cc3c(Cc4cnc(N)nc4)c[nH]c3c(F)c2Br)C1=O,≤ 500,≥ 10000,≥ 10000
COCCNc1ncc(COc2cc(/C=C3\Sc4ncccc4C3=O)c(Br)cc2O)cn1,≤ 500,2500 to 10000,≥ 10000
COc1cc(/C=C2\SC(=O)N(C)C2=O)c(Br)cc1NS(=O)(=O)c1csc(N)n1,500 to 10000,≤ 2500,
COc1cc(/C=c2\sc3nccn3c2=O)c(Br)cc1O,≤ 500,2500 to 10000,
CN1C(=O)S/C(=C\c2cc(OCc3ncc(N)cn3)c(O)cc2Br)C1=O,≥ 10000,2500 to 10000,≥ 10000
O=C1/C(=C/c2cc(OCc3cnc(Cl)nc3)c(O)cc2Br)Sc2ncccc21,≤ 500,2500 to 10000,
CN1C(=O)S/C(=C\c2cc(OCc3ccncc3)c(O)cc2Br)C1=O,500 to 10000,≤ 2500,
CN1C(=O)S/C(=C\c2cc(OCc3cn(-c4ccncc4)nn3)c(O)cc2Br)C1=O,≥ 10000,2500 to 10000,≥ 10000
CCN1C(=O)S/C(=C\c2cc(OC)c(O)cc2Br)C1=O,500 to 10000,2500 to 10000,
CN1C(=O)S/C(=C\c2cc(OCC(=O)c3cnc(N)nc3)c(O)c(F)c2Br)C1=O,500 to 10000,2500 to 10000,
COc1cc(/C=C2\SC(=O)N(C)C2=O)c(Cl)cc1O,≤ 500,≤ 2500,
Nc1ncc(COc2cc(/C=c3\sc4nccn4c3=O)c(Br)cc2O)cn1,500 to 10000,≤ 2500,
CC1C(=O)S/C(=C\c2cc(OC(C)c3cnc(N)nc3C(F)(F)F)c(O)c(F)c2Br)C1=O (configuration not stated),≤ 500,2500 to 10000,≥ 10000
O=C1/C(=C/c2cc(OCc3cnc(NCc4ccccn4)nc3)c(O)c(F)c2Br)Sc2ncccc21,≤ 500,≥ 10000,≥ 10000
CN1C(=O)S/C(=C\c2cc(OCc3ccnc4[nH]cnc34)c(O)cc2Br)C1=O,≤ 500,≤ 2500,≥ 10000
CN1C(=O)S/C(=C\c2cc3c(-c4cnc(N)nc4)c[nH]c3c(F)c2Br)C1=O,≤ 500,2500 to 10000,≥ 10000
COc1cc(/C=C2\Sc3ncccc3C2=O)c(Br)cc1O,≤ 500,2500 to 10000,
Nc1ncc(COc2cc(/C=C3\Sc4ncccc4C3=O)c(Br)c(F)c2O)cn1,≤ 500,≤ 2500,≥ 10000
CC(C)n1ccc(COc2cc(/C=C3\SC(=O)N(C)C3=O)c(Br)cc2O)cc1=O,≥ 10000,2500 to 10000,≥ 10000
CN1C(=O)S/C(=C\c2cc(OCc3cnc(N)nc3)c(Oc3cnc(N)s3)cc2Br)C1=O,500 to 10000,2500 to 10000,≥ 10000
COc1cc(/C=C2\SC(=O)N(C)C2=O)c(Br)cc1O,≤ 500,≤ 2500,≥ 10000

SMILES,IC50 (Cyclic GMP-AMP synthase [1]) [nM],IC50 (Cyclic GMP-AMP synthase [2]) [nM],IC50 (Cyclic GMP-AMP synthase [3]) [nM]
CCOc1cc(/C=C2\Sc3ncccc3C2=O)c(Br)cc1O,≤ 500,2500 to 10000,
CN1C(=O)S/C(=C\c2cc(OCc3cnc([S+](C)[O-])nc3N)c(O)c(F)c2Br)C1=O (configuration not stated),≤ 500,≥ 10000,
CN1C(=O)S/C(=C\c2cc(OCc3cccnc3)c(O)cc2Br)C1=O,≤ 500,2500 to 10000,
C#CCOc1cc(/C=C2\SC(=O)N(C)C2=O)c(Br)cc1O,500 to 10000,2500 to 10000,
CN1C(=O)S/C(=C\c2cc(OCc3cccnc3)c(O)c(F)c2Br)C1=O,≤ 500,2500 to 10000,
CN1C(=O)S/C(=C\c2cc(OCCc3cnc(N)nc3)c(O)cc2Br)C1=O,≤ 500,≤ 2500,
CN1C(=O)S/C(=C\c2cc(OCc3cnc(Cl)nc3N)c(O)c(F)c2Br)C1=O,≤ 500,2500 to 10000,
COc1cc(/C=C2\Sc3ccccc3C2=O)c(Br)cc1O,500 to 10000,≤ 2500,
Cc1ncc(COc2cc(/C=C3\Sc4ncccc4C3=O)c(Br)cc2O)cn1,≤ 500,2500 to 10000,
CC(Oc1cc(/C=C2\SC(=O)N(C)C2=O)c(Br)c(F)c1O)c1cncnc1N (configuration not stated),500 to 10000,≥ 10000,
CC(Oc1cc(/C=C2\SC(=O)N(C)C2=O)c(Br)c(F)c1O)c1cnc(N)nc1 (configuration not stated),≤ 500,≤ 2500,
CN1C(=O)S/C(=C\c2cc(OCc3cncnc3)c(O)c(F)c2Br)C1=O,≤ 500,2500 to 10000,
COc1cc(/C=C2\SC(=S)N(C)C2=O)c(Br)cc1O,≤ 500,2500 to 10000,
CN1C(=O)S/C(=C\c2cc(OCc3cccc4[nH]ccc34)c(O)cc2Br)C1=O,500 to 10000,2500 to 10000,
CN1C(=O)S/C(=C\c2cc(O)c(O)cc2Br)C1=O,≥ 10000,2500 to 10000,
CCOc1cc(/C=C2\SC(=O)N(C)C2=O)c(Br)cc1O,≤ 500,≤ 2500,
CN1C(=O)S/C(=C\c2cc(OCc3cncnc3N)c(O)c(F)c2Br)C1=O,≤ 500,≥ 10000,
Cc1ncc(COc2cc(/C=C3\SC(=O)C(C)C3=O)c(Br)c(F)c2O)c(N)n1 (configuration not stated),≤ 500,2500 to 10000,
CC(Oc1cc(/C=C2\Sc3ncc(F)cc3C2=O)c(Br)c(F)c1O)c1cnc(N)nc1 (configuration not stated),≤ 500,2500 to 10000,
Nc1ncc(COc2cc(/C=C3\Sc4ncccc4C3=O)c(Br)cc2O)c(C2CC2)n1,≤ 500,2500 to 10000,
Cc1nc(N)ncc1COc1cc(/C=C2\Sc3ncccc3C2=O)c(Br)cc1O,≤ 500,≤ 2500,
CN1C(=O)S/C(=C\c2cc(OCc3cnc(Cl)nc3)c(O)c(F)c2Br)C1=O,≥ 10000,2500 to 10000,
COc1cc(/C=C2\SC(=O)N(C)C2=O)c(Br)cc1NS(=O)(=O)c1ccccn1,≥ 10000,2500 to 10000,

SMILES,IC50 (Cyclic GMP-AMP synthase [1]) [nM],IC50 (Cyclic GMP-AMP synthase [2]) [nM],IC50 (Cyclic GMP-AMP synthase [3]) [nM]
O=C1/C(=C/c2cc(OCc3cccnc3)c(O)cc2Br)Sc2ncccc21,≤ 500,2500 to 10000,
CC(Oc1cc(/C=C2\Sc3ncccc3C2=O)c(Br)c(F)c1O)c1cnc(N)nc1 (configuration not stated),≤ 500,2500 to 10000,
CN1C(=O)S/C(=C\c2cc(OCc3cnc(NCc4cccnc4)nc3)c(O)c(F)c2Br)C1=O,500 to 10000,2500 to 10000,
CC(Oc1cc(/C=C2\Sc3ncccc3C2=O)c(Br)cc1O)c1cnc(NCCO)nc1 (configuration not stated),≤ 500,2500 to 10000,
CN1C(=O)S/C(=C\c2cc(OCc3ccc(NC(=O)c4cccnc4)nc3)c(O)cc2Br)C1=O,500 to 10000,,
CC(C)c1cc(/C=C2\SC(=O)N(C)C2=O)c(Br)cc1O,≥ 10000,,
CC(Oc1cc(/C=C2\SC(=O)N(C)C2=O)c(Br)cc1O)c1cnc(Cl)nc1 (configuration not stated),≥ 10000,,
CN1C(=O)S/C(=C\c2cc(OCc3cncc4ccccc34)c(O)cc2Br)C1=O,≥ 10000,,
CN1C(=O)S/C(=C\c2cc(OCc3cnc(N)nc3C(F)(F)F)c(O)cc2Br)C1=O,≤ 500,,
CC(Oc1cc(/C=c2\sc3nccn3c2=O)c(Br)c(F)c1O)c1cnc(N)nc1 (configuration not stated),500 to 10000,≥ 10000,
CC(Oc1cc(/C=C2\SC(=O)N(C)C2=O)c(Br)cc1O)c1cnc(N)nc1 (configuration not stated),≤ 500,,
CC(=O)c1cc(/C=C2\SC(=O)N(C)C2=O)c(Br)cc1O,≥ 10000,,
O=C1/C(=C/c2cc3nn[nH]c3cc2Br)Sc2ncccc21,≤ 500,,
COc1cc(/C=C2\SC(=O)N(C)C2=O)c(Br)cc1Oc1ccnc2ccccc12,≥ 10000,,
CN1C(=O)S/C(=C\c2cc(CC(F)(F)F)c(O)cc2Br)C1=O,500 to 10000,,
CN1C(=O)S/C(=C\c2cc(OCC3CCN(C(=O)c4ccccc4)CC3)c(O)cc2Br)C1=O,≥ 10000,,
COc1cc(/C(Br)=C2\SC(=O)N(C)C2=O)c(Br)cc1O,≥ 10000,,
CC(Oc1cc(/C=C2\SC(=O)N(C)C2=O)c(Br)cc1O)c1cnc(NCCO)nc1 (configuration not stated),500 to 10000,,
O=C1/C(=C/c2cc(OCc3cnc(NCc4ccccn4)nc3)c(O)cc2Br)Sc2ncccc21,≤ 500,,
COc1cc2c(cc1O)CC/C2=C1/SC(=O)N(C)C1=O,≥ 10000,,
Cc1ncc(COc2cc(/C=C3\SC(=O)N(C)C3=O)c(Br)cc2O)cn1,≤ 500,,
